pIC50: −log10 of the molar value. Where “and” joins values, the source holds several entries; their conditions need not be identical. Equal values may be shown once. Read-outs that look alike come from different tables or passages of the source.
Experiments:
A431 cells = test: cells; assay type: cell-based; conditions: for IC50: read-out: IC50 nM (Toxicity); for pIC50: saponin alone, read-out: IC50 toxicity
Experimental: (§1) (FIGS. 66a and 66B). Next toxicity was determined, for this the modified saponins were titrated on HeLa and A431 cells. […] Next toxicity was determined, for this the modified saponins were titrated on HeLa and A431 cells.

HeLa cells = test: cells; assay type: cell-based; conditions: for pIC50: saponin alone, read-out: IC50 toxicity
Experimental: as §1

[1] = tested on: EGFR expressing cells (HeLa); assay type: cell-based; conditions: for IC50: HeLa cells, read-out: IC50 nM (Activity); for pIC50: HeLa, read-out: IC50 endosomal escape enhancing activity
human red blood cells = test: cells; assay type: cell-based; conditions: for pIC50: read-out: IC50 hemolytic activity
Experimental: Red blood cells (RBCs) were isolated from a buffy coat using a Ficoll gradient. The obtained RBC pellet (˜4-5 ml) was washed 2× with 50 ml DPBS (without Ca^2+/Mg^2+, PAN-Biotech GmbH). Cells were pelleted by centrifugation for 10 min, 800×g at RT. RBC were counted and resuspended at 500.000.000 c/ml in DPBS (without Ca^2+/Mg^2+), based on total cell count.
Saponin dilutions were prepared in DPBS (with Ca^2+/Mg^2+, PAN-Biotech GmbH), at 1.11× final strength. For positive lysis control a 0.02% Triton-X100 solution was prepared in DPBS^+/+. Of all compound solutions 135 μl was dispensed/well in a 96 well V-bottom plate. To this 15 μl RBC suspension was added and mixed shortly (10 sec-600 rpm). The plate was incubated 30 min at RT, with gentle agitation. Afterwards the plate was spun for 10 min at 800×g to pellet the RBC and 100-120 μl supernatant was transferred to a standard 96 wp (96 well-plate).
Saponin dilutions were prepared in DPBS (with Ca^2+/Mg^2+, PAN-Biotech GmbH), at 1.11× final strength. For positive lysis control a 0.02% Triton-X100 solution was prepared in DPBS+/+. Of all compound solutions 135 μl was dispensed/well in a 96 well V-bottom plate. To this 15 μl RBC suspension was added and mixed shortly (10 sec-600 rpm). The plate was incubated 30 min at RT, with gentle agitation. Afterwards the plate was spun for 10 min at 800×g to pellet the RBC and 100-120 μl supernatant was transferred to a standard 96 wp (96 well-plate).

[2] = tested on: EGFR expressing cells (A431); assay type: cell-based; conditions: for pIC50: A431, + 5 pM EGFdianthin, read-out: IC50 endosomal escape enhancing activity
[3] = Critical micellar concentration (CMC) by ANS fluorescence; assay type: physicochemical; conditions: for CMC: Table A7, determined in PBS
Experimental: The critical micellar concentration (CMC) of saponins derived from Saponaria officinalis (SO) (Table A7) and derived from Quillaja saponaria (QS) (Table A8, and Table A9) was determined by the method of DeVendittis et al. (A fluorimetric method for the estimation of the critical micelle concentration of surfactants, Analytical Biochemistry, Volume 115, Issue 2, August 1981, Pages 278-286) as follows:
(§2) The emission spectrum of 8-Anilinonaphthalene-1-sulfonic acid (ANS) in either purified water (MQ) or PBS (Dulbecco's PBS+/+) was determined at dry weight concentrations of saponins ranging from 1 to 1400 pM to cover the range below and above the CMC. Above the CMC, the fluorescence yield of ANS increases and the wavelength of maximum emission decreases due to portioning of the fluorescent dye into micelles. Fluorescence yields were recorded on a Fluoroskan Ascent FL (Thermo Scientific) at an excitation wavelength of 355 nm, and an emission wavelength of 460 nm. 6 μg at a concentration of 75.86 pM of ANS were used per sample and measurement.
The critical micellar concentration (CMC) of saponins was determined by the method of DeVendittis et al. (A fluorimetric method for the estimation of the critical micelle concentration of surfactants, Analytical Biochemistry, Volume 115, Issue 2, August 1981, Pages 278-286) as follows:
as §2, with “μM” for “pM”

[4] = Table A5, saponin alone, read-out: IC50 nM (Toxicity)
[5] = Table A5, saponin titrated + 5 pM EGFdianthin
[6] = Table A5, read-out: IC50 nM (hemolysis)
[7] = Table A6, read-out: IC50 nM (hemolysis)
[8] = Homo sapiens, HeLa, Table A5, saponin alone, read-out: IC50 nM (Toxicity)
[9] = Table A12, read-out: IC50 nM (Toxicity)

CC1OC(OC2C(C)OC(OC(=O)C34CCC(C)(C)CC3C3=CCC5C6(C)CCC(OC7OC(C(=O)NC(C)(CO)CO)C(O)C(OC8OCC(O)C(O)C8O)C7OC7OC(CO)C(O)C(O)C7O)C(C)(C=NNC(=O)CCCCCN7C(=O)C=CC7=O)C6CCC5(C)C3(C)CC4O)C(OC3OC(C)C(OC4OCC(O)C(OC5OC(CO)C(O)C(O)C5O)C4O)C(O)C3O)C2O)C(O)C(OC2OCC(O)C(O)C2O)C1O (stereo not drawn) [SO1861-(Ald-EMCH)-(Ac—OH)-(Glu-AMPD)]
IC50 (A431 cells; Table A6, saponin alone): > 100000 nM
IC50 (HeLa cells; [4]): > 100000 nM
IC50 [1, 5]: > 20000 nM
IC50 (human red blood cells; [6]): > 1e+06 nM
IC50 (human red blood cells; [7]): > 1e+06 nM
IC50 ([2]; Table A6, A431 cells, saponin titrated + 5 pM EGFdianthin, read-out: IC50 nM (Activity)): > 20000 nM

CC(=O)OC1C(C)OC(OC2C(C)OC(OC(=O)[C@]34CCC(C)(C)CC3C3=CCC5[C@@]6(C)CC[C@H](OC7OC(C(=O)NC(C)(CO)CO)C(O)C(OC8OCC(O)C(O)C8O)C7OC7OC(CO)C(O)C(O)C7O)[C@@](C)(C=O)C6CC[C@@]5(C)[C@]3(C)C[C@H]4O)C(OC3OC(C)C(OC4OCC(O)C(OC5OC(CO)C(O)C(O)C5O)C4O)C(O)C3O)C2O)C(O)C1OC1OC(C)C(O)C(O)C1O (stereo partly drawn) [SO1861-Glu-AMPD]
CMC [3]: 50 ± 5 µM

CC(=O)OC1C(C)OC(OC2C(C)OC(OC(=O)[C@]34CCC(C)(C)CC3C3=CCC5[C@@]6(C)CC[C@H](OC7OC(C(=O)NCCN8C(=O)C=CC8=O)C(O)C(OC8OCC(O)C(O)C8O)C7OC7OC(CO)C(O)C(O)C7O)[C@@](C)(C=O)C6CC[C@@]5(C)[C@]3(C)C[C@H]4O)C(OC3OC(C)C(OC4OCC(O)C(OC5OC(CO)C(O)C(O)C5O)C4O)C(O)C3O)C2O)C(O)C1OC1OCC(O)C(O)C1O (stereo partly drawn) [SO1861-Glu-AEM]
CMC [3]: 45 ± 5 µM
IC50 (A431 cells; Homo sapiens, A-431, Table A6, saponin alone): > 100000 nM
pIC50 (A431 cells; Homo sapiens, A-431, text): < 4.00
IC50 (HeLa cells; [8]): > 100000 nM
pIC50 (HeLa cells; Homo sapiens, HeLa): < 4.00

CC(=O)OC1C(C)OC(OC2C(C)OC(OC(=O)C34CCC(C)(C)CC3C3=CCC5C6(C)CCC(OC7OC(C(=O)NC(C)(CO)CO)C(O)C(OC8OCC(O)C(O)C8O)C7OC7OC(CO)C(O)C(O)C7O)C(C)(C=NNC(=O)CCCCCN7C(=O)C=CC7=O)C6CCC5(C)C3(C)CC4O)C(OC3OC(C)C(OC4OCC(O)C(OC5OC(CO)C(O)C(O)C5O)C4O)C(O)C3O)C2O)C(O)C1OC1OCC(O)C(O)C1O (stereo not drawn) [SO1861-(Ald-EMCH)-(Glu-AMPD)]
CMC [3]: >30 µM
IC50 (A431 cells; Table A6, saponin alone): > 100000 nM
IC50 (HeLa cells; [4]): > 100000 nM
IC50 (human red blood cells; [6]): > 1e+06 nM
IC50 (human red blood cells; [7]): > 1e+06 nM

QS21 [reference compound]
pIC50 (HeLa cells): 5.22 and 5.00
pIC50 ([1]; + 5 pM EGFdianthin): 6.70
IC50 [1, 5]: 200 nM
IC50 ([1]; Table A12, + 5 pM EGFdianthin): 200 nM
pIC50 [2]: 7.05

CC1OC(OC2C(C)OC(OC(=O)[C@]34CCC(C)(C)CC3C3=CCC5[C@@]6(C)CC[C@H](OC7OC(C(=O)O)C(O)C(OC8OCC(O)C(O)C8O)C7OC7OC(CO)C(O)C(O)C7O)[C@@](C)(CO)C6CC[C@@]5(C)[C@]3(C)C[C@H]4O)C(OC3OC(C)C(OC4OCC(O)C(OC5OC(CO)C(O)C(O)C5O)C4O)C(O)C3O)C2O)C(O)C(OC2OCC(O)C(O)C2O)C1O (stereo partly drawn) [SO1861-(Ald-OH)-(Ac—OH)]
CMC [3]: >280 µM
IC50 (A431 cells; Table A6, saponin alone): > 100000 nM
IC50 (HeLa cells; [4]): > 100000 nM
IC50 (human red blood cells; [6]): 200000 nM
IC50 (human red blood cells; [7]): 200000 nM
pIC50 (human red blood cells): 3.70

CC(=O)OC1C(C)OC(OC2C(C)OC(OC(=O)C34CCC(C)(C)CC3C3=CCC5C6(C)CCC(OC7OC(C(=O)O)C(O)C(OC8OCC(O)C(O)C8O)C7OC7OC(CO)C(O)C(O)C7O)C(C)(C=NNC(=O)CCCCCN7C(=O)C=CC7=O)C6CCC5(C)C3(C)CC4O)C(OC3OC(C)C(OC4OCC(O)C(OC5OC(CO)C(O)C(O)C5O)C4O)C(O)C3O)C2O)C(O)C1OC1OCC(O)C(O)C1O (stereo not drawn) [Molecule 2]
CMC compared to corresponding underivatised saponin [3]: increased CMC

CC[C@H](C)[C@H](C[C@H](O)CC(=O)OC1C(C)OC(OC(=O)[C@]23CCC(C)(C)CC2C2=CCC4[C@@]5(C)CC[C@H](OC6OC(C(=O)O)C(O)C(OC7OCC(O)C(O)C7O)C6OC6OC(CO)C(O)C(O)C6O)[C@@](C)(/C=N/NC(=O)CCCCCN6C(=O)C=CC6=O)C5CC[C@@]4(C)[C@]2(C)C[C@H]3O)C(OC2OC(C)C(OC3OCC(O)C(OC4OCC(O)(CO)C4O)C3O)C(O)C2O)C1O)OC(=O)C[C@@H](O)C[C@H](OC1OC(CO)C(O)C1O)[C@@H](C)CC (stereo partly drawn) [QS21-Ald-EMCH]
IC50 (HeLa cells; [9]): > 30000 nM
pIC50 ([1]; + 5 pM EGFdianthin): 6.05
pIC50 [2]: 6.05

CC(=O)OC1C(C)OC(OC2C(C)OC(OC(=O)[C@]34CCC(C)(C)CC3C3=CCC5[C@@]6(C)CC[C@H](OC7OC(C(=O)O)C(O)C(OC8OCC(O)C(O)C8O)C7OC7OC(CO)C(O)C(O)C7O)[C@@](C)(/C=N/NC(=O)CCCCCN7C(=O)C[C@H](SCCO)C7=O)C6CC[C@@]5(C)[C@]3(C)C[C@H]4O)C(OC3OC(C)C(OC4OCC(O)C(OC5OC(CO)C(O)C(O)C5O)C4O)C(O)C3O)C2O)C(O)C1OC1OCC(O)C(O)C1O (stereo partly drawn) [SO1861-Ald-EMCH-blocked]
CMC [3]: 50 ± 5 µM
IC50 (HeLa cells; [8]): > 100000 nM
pIC50 (HeLa cells; Homo sapiens, HeLa): < 4.00
IC50 (human red blood cells; Homo sapiens, Erythrocyte, Table A5, read-out: IC50 nM (hemolysis)): 300000 nM
IC50 (human red blood cells; Homo sapiens, Erythrocyte, Table A6, read-out: IC50 nM (hemolysis)): 300000 nM
pIC50 (human red blood cells; Homo sapiens, Erythrocyte): 3.52

CC(=O)OC1C(C)OC(OC2C(C)OC(OC(=O)[C@]34CCC(C)(C)CC3C3=CCC5[C@@]6(C)CC[C@H](OC7OC(C(=O)O)C(O)C(OC8OCC(O)C(O)C8O)C7OC7OC(CO)C(O)C(O)C7O)[C@@](C)(C=O)C6CC[C@@]5(C)[C@]3(C)C[C@H]4O)C(OC3OC(C)C(OC4OCC(O)C(OC5OCC(O)C(O)C5O)C4O)C(O)C3O)C2O)C(O)C1OC1OCC(O)C(O)C1O (stereo partly drawn) [SO1832, reference compound]
pIC50 (human red blood cells): ~5.00

CC[C@H](C)[C@H](C[C@H](O)CC(=O)OC1C(C)OC(OC(=O)[C@]23CCC(C)(C)CC2C2=CCC4[C@@]5(C)CC[C@H](OC6OC(C(=O)NC(C)(CO)CO)C(O)C(OC7OCC(O)C(O)C7O)C6OC6OC(CO)C(O)C(O)C6O)[C@@](C)(/C=N/NC(=O)CCCCCN6C(=O)C=CC6=O)C5CC[C@@]4(C)[C@]2(C)C[C@H]3O)C(OC2OC(C)C(OC3OCC(O)C(OC4OCC(O)(CO)C4O)C3O)C(O)C2O)C1O)OC(=O)C[C@@H](O)C[C@H](OC1OC(CO)C(O)C1O)[C@@H](C)CC (stereo partly drawn) [QS21-(Ald-EMCH)-(Glu-AMPD)]
IC50 (HeLa cells; [9]): > 30000 nM
IC50 (human red blood cells; Table A12, read-out: IC50 nM (hemolysis)): > 300000 nM
pIC50 (human red blood cells): < 3.52

Aescin [reference compound]
pIC50 (A431 cells): < 4.52
IC50 (HeLa cells; [9]): > 30000 nM
pIC50 (human red blood cells): 5.00
